Test results from patent US20070043076A1, “Substituted 2-arylmethylene-n-aryl-n'aryl-malonamides and analogs as activators of caspases and inducers of apoptosis” (priority 2003, published 2007).

Key:
T-47D [1] = test: Caspase cascade activation (Ac-DEVD-R110 fluorogenic substrate) in T-47D cells; format: cell-based, Human; conditions: 24 h incubation
Protocol: (§1) Human breast cancer cell lines T-47D and ZR-75-1 were grown according to media component mixtures designated by American Type Culture Collection +10% FCS (Invitrogen Corporation), in a 5% CO2-95% humidity incubator at 37° C. T-47D and ZR-75-1 cells were maintained at a cell density between 30 and 80% confluency and for HL-60 at a cell density of 0.1 to 0.6×10^6 cells/mL. Cells were harvested at 600×g and resuspended at 0.65×10^6 cells/mL into appropriate media +10% FCS. An aliquot of 45 μL of cells was added to a well of a 96-well microtiter plate containing 5 μL of a 10% DMSO in RPMI-1640 media solution containing 1.6 to 100 μM of N,N′-bis-(3-trifluoromethyl-phenyl)-2-(4-isopropyl-benzylidene)-malonamide or other test compound (0.16 to 10 μM final). An aliquot of 45 μL of cells was added to a well of a 96-well microtiter plate containing 5 μL of a 10% DMSO in RPMI-1640 media solution without test compound as the control sample. The samples were mixed by agitation and then incubated at 37° C. for 24 h in a 5% CO2-95% humidity incubator. After incubation, the samples were removed from the incubator and […] of a solution containing 20 μM of N-(Ac-DEVD)-N′-ethoxycarbonyl-R110 fluorogenic substrate (SEQ ID NO:1) (Cytovia, Inc.; U.S. Pat. No. 6,335,429), 20% sucrose (Sigma), 20 mM DTT (Sigma), 200 mM NaCl (Sigma), 40 mM Na PIPES buffer pH 7.2 (Sigma), and 500 μg/mL lysolecithin (Calbiochem) was added. The samples were mixed by agitation and incubated at room temperature. Using a fluorescent plate reader (Model 1420 Wallac Instruments), an initial reading (T=0) was made approximately 1-2 min after addition of the substrate solution, employing excitation at 485 nm and emission at 530 nm, to determine the background fluorescence of the control sample. After approximately 3 h of incubation, the samples were read for fluorescence as above (T=3 h).
(§2) The relative Fluorescence Unit values (RFU) were used to calculate the sample readings as follows: RFU(T=3h)−Control RFU(T=0)=Net RFU(T=3h)
(§3) The activity of caspase cascade activation was determined by the ratio of the net RFU value for N,N′-bis-(3-trifluoromethyl-phenyl)-2-(4-isopropyl-benzylidene)-malonamide to that of control samples. The EC50 (nM) was determined by a sigmoidal dose-response calculation (Prism 2.0, GraphPad Software Inc.).

ZR-75-1 = test: Caspase cascade activation (Ac-DEVD-R110 fluorogenic substrate) in ZR-75-1 cells; format: cell-based, Human; conditions: 24 h incubation
Protocol: as §1, §2, §3

T-47D [2] = test: Inhibition of cell proliferation (GI50, CellTiter 96 AQueous One) in T-47D cells; format: cell-based; conditions: Homo sapiens, T47D, 48 h incubation, read-out: GI50 (dose for 50% inhibition of cell proliferation)
Protocol: (§4) T-47D and DLD-1 cells were grown and harvested as in Example 105. An aliquot of 90 μL of cells (2.2×10^4 cells/mL) was added to a well of a 96-well microtiter plate containing 10 μl of a 10% DMSO in RPMI-1640 media solution containing 1 nM to 100 μM of N,N′-bis-(3-trifluoromethyl-phenyl)-2-(4-isopropyl-benzylidene)-malonamide (0.1 nM to 10 μM final). An aliquot of 90 μL of cells was added to a well of a 96-well microtiter plate containing 10 μL of a 10% DMSO in RPMI-1640 media solution without compound as the control sample for maximal cell proliferation (AMax). The samples were mixed by agitation and then incubated at 37° C. for 48 h in a 5% CO2-95% humidity incubator. After incubation, the samples were removed from the incubator and 20 μL of CellTiter 96 AQUEOUS One Solution Cell Proliferation™ reagent (Promega) was added. The samples were mixed by agitation and incubated at 37° C. for 2-4 h in a 5% CO2-95% humidity incubator. Using an absorbance plate reader (Model 1420 Wallac Instruments), an initial reading (T=0) was made approximately 1-2 min after addition of the solution, employing absorbance at 490 nm. This determines the possible background absorbance of the test compounds. No absorbance for N,N′-bis-(3-trifluoromethyl-phenyl)-2-(4-isopropyl-benzylidene)-malonamide was found at 490 nm. After the 2-4 h incubation, the samples were read for absorbance as above (ATest).
(§5) Baseline for GI50 (dose for 50% inhibition of cell proliferation) of initial cell numbers were determined by adding an aliquot of 90 μL of cells or 90 μL of media, respectively, to wells of a 96-well microtiter plate containing 10 μL of a 10% DMSO in RPMI-1640 media solution. The samples were mixed by agitation and then incubated at 37° C. for 0.5 h in a 5% CO2-95% humidity incubator. After incubation, the samples were removed from the incubator and 20 μL of CellTiter 96 AQUEOUS One Solution Cell Proliferation™ reagent (Promega) was added. The samples were mixed by agitation and incubated at 37° C. for 2-4 h in a 5% CO2-95% humidity incubator. Absorbance was read as above, (AStart) defining absorbance for initial cell number used as baseline in GI50 determinations.
(§6) GI50 (dose for 50% inhibition of cell proliferation) is the concentration where [(ATest−AStart)/(AMax−AStart)]=0.5.

DLD-1 = test: Inhibition of cell proliferation (GI50, CellTiter 96 AQueous One) in DLD-1 cells; format: cell-based; conditions: Homo sapiens, 48 h incubation, read-out: GI50 (dose for 50% inhibition of cell proliferation)
Protocol: as §4, §5, §6

Jurkat cells = test: Drug induced apoptosis in Jurkat cells (propidium iodide flow cytometry); format: cell-based; conditions: 24 h
Protocol: FIGS. 1A-C are graphs showing drug induced apoptosis in Jurkat cells. FIG. 1A: control cells (DMSO treated) showing most of the cells in G1 (M2). FIG. 1B: cells treated with 0.5 μM of N,N′-bis-(3-trifluoromethyl-phenyl)-2-(4-isopropyl-benzylidene)-malonamide for 24 h showing 50% of the cells in M1 (subdiploid apoptotic cells). FIG. 1C: cells treated with 1 μM of N,N′-bis-(3-trifluoromethyl-phenyl)-2-(4-isopropyl-benzylidene)-malonamide for 24 h showing 77% of the cells in M1 (subdiploid apoptotic cells).
(§7) Jurkat cells were incubated with N,N′-bis-(3-trifluoromethyl-phenyl)-2-(4-isopropyl-benzylidene)-malonamide (0.5 μM and 1 μM) for 24 h under normal growth conditions; control cultures were treated with DMSO vehicle. Cells were harvested at 1200 rpm and washed twice with 5 mM EDTA/PBS. Cells were then resuspended in 300 μl EDTA/PBS and […] of 100% ethanol, vortexed and incubated at room temperature for 1 h. Samples were spun down at 12000 rpm for 5 min and the supernatant was removed. A solution containing 100 μg/ml of propidium iodide and 1 mg/ml of RNAse A (fresh) was added to the samples and incubated for 1 h at room temperature. Samples were then transferred to 12×75 mm polystyrene tubes and analysed on a flow cytometer. All flow cytometry analyses were performed on FACScalibur (Becton Dickinson) using Cell Quest analysis software.

T47D cells = test: Drug induced apoptosis in T47D cells (propidium iodide flow cytometry); format: cell-based, Human; conditions: 1.7 μM, 24 h
Protocol: FIGS. 2A-B are graphs showing drug induced apoptosis in T47D cells. FIG. 2A: control cells (DMSO treated) showing most of the cells in G1 (M2). FIG. 2B: cells treated with 1.7 μM of N,N′-bis-(3-trifluoromethyl-phenyl)-2-(4-isopropyl-benzylidene)-malonamide for 24 h showing 88% of the cells in M1 (subdiploid apoptotic cells).
as §7
T47D breast cancer cell line was maintained and harvested as described in Example 105. […] Cells were harvested and treated with propidium iodide and analysed on a flow cytometer as described in Example 107.

[3] = ratio of net RFU to that of control samples

CC(C)c1ccc(C=C(C(=O)Nc2cccc(C(F)(F)F)c2)C(=O)Nc2cccc(C(F)(F)F)c2)cc1 [Example 3, N,N′-Bis-(3-trifluoromethyl-phenyl)-2-(4-isopropyl-benzylidene)-malonamide]
Caspase Activity Ratio (T-47D [1]; [3]): 15 | EC50 (T-47D [1]; Homo sapiens, T47D, 0.16 to 10 μM final, read-out: Caspase potency EC50): 0.867 µM | Caspase Activity Ratio (ZR-75-1; [3]): 17 | EC50 (ZR-75-1; Homo sapiens, 0.16 to 10 μM final, read-out: Caspase potency EC50): 1.4 µM | GI50 (T-47D [2]): 0.18 µM | GI50 (DLD-1): 0.2 µM | induction of apoptosis (in words) (Jurkat cells; 0.5 μM and 1 μM): induces massive apoptosis | cells in M1 (subdiploid apoptotic cells) (Jurkat cells; 0.5 μM): 50% | cells in M1 (subdiploid apoptotic cells) (Jurkat cells; 1 μM): 77% | cells in M1 (subdiploid apoptotic cells) (T47D cells): 88% | induction of apoptosis (in words) (T47D cells): induces massive apoptosis
